{"source": "ChEMBL document CHEMBL5465560", "about": "“Selectivity Literature for EUbOPEN Chemogenomic Library” (2024)", "key": {"[1]": {"target": "Atypical kinase COQ8A, mitochondrial (Homo sapiens, UniProt Q8NI60)", "sequence (Q8NI60 163-647 limits assumed)": "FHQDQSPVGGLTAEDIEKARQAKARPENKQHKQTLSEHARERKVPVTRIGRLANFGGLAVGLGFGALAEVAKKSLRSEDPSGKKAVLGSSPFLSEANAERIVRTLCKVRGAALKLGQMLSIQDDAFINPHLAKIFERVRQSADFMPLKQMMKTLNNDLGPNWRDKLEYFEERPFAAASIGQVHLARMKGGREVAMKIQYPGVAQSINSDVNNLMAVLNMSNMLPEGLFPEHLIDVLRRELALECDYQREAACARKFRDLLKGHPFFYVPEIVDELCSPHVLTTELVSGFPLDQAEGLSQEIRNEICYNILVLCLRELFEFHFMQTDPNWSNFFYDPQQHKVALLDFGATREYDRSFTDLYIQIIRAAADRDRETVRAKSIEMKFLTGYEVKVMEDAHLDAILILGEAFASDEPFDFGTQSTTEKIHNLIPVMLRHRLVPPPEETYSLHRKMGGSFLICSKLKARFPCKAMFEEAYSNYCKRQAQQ", "assay": "Selectivity interaction (KinomeScan (DiscoverX)) EUB0000666a ADCK3", "conditions": "at 10 µM"}, "[2]": {"target": "T1, Serine/threonine-protein kinase RIO3 (Homo sapiens) (UniProt O14730)", "T1 sequence (whole entry)": "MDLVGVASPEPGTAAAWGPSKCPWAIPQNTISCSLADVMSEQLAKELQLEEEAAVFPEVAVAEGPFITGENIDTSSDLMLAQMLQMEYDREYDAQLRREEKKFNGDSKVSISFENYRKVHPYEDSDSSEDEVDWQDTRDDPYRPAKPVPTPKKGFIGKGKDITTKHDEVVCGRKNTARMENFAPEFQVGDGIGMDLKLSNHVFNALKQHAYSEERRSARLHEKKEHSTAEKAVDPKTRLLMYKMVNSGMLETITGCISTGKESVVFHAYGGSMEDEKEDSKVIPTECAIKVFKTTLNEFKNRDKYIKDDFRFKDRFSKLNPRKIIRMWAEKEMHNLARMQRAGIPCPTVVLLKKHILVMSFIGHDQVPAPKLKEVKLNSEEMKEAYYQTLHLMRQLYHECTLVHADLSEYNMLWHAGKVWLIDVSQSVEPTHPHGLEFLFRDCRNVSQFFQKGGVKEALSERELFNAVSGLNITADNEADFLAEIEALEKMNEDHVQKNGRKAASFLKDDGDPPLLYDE", "assay": "Selectivity interaction (KinomeScan (DiscoverX)) EUB0000666a RIOK3", "conditions": "at 10 µM"}, "[3]": {"target": "T2, EKC/KEOPS complex subunit TP53RK (Homo sapiens) (UniProt Q96S44)", "T2 sequence (whole entry)": "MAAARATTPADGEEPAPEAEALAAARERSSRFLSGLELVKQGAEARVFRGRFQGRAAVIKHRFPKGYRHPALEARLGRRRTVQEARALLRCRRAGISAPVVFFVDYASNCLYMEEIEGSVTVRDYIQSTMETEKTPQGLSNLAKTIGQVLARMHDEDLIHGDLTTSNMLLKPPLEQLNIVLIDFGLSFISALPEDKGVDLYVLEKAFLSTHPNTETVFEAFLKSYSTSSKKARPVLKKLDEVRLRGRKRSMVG", "assay": "Selectivity interaction (ActivX KiNativ screen (kinase selectivity in THP-1 cell lysates)) EUB0000639a TP53RK", "format": "subcellular", "conditions": "lysate"}, "[4]": {"target": "RAC-alpha serine/threonine-protein kinase (Homo sapiens, UniProt P31749)", "sequence (P31749 whole entry)": "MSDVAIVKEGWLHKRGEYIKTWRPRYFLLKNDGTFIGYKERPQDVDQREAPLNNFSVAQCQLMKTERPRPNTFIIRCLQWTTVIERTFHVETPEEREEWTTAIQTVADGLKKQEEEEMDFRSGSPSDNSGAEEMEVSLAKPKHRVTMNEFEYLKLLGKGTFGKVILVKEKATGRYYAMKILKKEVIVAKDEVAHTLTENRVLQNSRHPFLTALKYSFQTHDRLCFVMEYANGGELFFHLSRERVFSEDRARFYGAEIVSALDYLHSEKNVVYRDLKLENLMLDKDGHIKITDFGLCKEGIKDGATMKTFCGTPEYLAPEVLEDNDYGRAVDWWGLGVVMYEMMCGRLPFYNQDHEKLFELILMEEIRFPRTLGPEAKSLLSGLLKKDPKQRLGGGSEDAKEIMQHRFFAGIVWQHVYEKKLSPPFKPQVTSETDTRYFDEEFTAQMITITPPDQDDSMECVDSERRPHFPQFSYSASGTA", "assay": "Selectivity interaction (ActivX KiNativ screen (kinase selectivity in THP-1 cell lysates)) EUB0000639a AKT1", "format": "subcellular", "conditions": "lysate"}, "[5]": {"target": "Serine/threonine-protein kinase B-raf (Homo sapiens) (UniProt P15056)", "assay": "Selectivity interaction (Kinase panel (Invitrogen)) EUB0000639a BRAF", "conditions": "at 200 nM"}, "[6]": {"target": "T3, Serine/threonine-protein kinase 36 (Homo sapiens) (UniProt Q9NRP7)", "T3 sequence (whole entry)": "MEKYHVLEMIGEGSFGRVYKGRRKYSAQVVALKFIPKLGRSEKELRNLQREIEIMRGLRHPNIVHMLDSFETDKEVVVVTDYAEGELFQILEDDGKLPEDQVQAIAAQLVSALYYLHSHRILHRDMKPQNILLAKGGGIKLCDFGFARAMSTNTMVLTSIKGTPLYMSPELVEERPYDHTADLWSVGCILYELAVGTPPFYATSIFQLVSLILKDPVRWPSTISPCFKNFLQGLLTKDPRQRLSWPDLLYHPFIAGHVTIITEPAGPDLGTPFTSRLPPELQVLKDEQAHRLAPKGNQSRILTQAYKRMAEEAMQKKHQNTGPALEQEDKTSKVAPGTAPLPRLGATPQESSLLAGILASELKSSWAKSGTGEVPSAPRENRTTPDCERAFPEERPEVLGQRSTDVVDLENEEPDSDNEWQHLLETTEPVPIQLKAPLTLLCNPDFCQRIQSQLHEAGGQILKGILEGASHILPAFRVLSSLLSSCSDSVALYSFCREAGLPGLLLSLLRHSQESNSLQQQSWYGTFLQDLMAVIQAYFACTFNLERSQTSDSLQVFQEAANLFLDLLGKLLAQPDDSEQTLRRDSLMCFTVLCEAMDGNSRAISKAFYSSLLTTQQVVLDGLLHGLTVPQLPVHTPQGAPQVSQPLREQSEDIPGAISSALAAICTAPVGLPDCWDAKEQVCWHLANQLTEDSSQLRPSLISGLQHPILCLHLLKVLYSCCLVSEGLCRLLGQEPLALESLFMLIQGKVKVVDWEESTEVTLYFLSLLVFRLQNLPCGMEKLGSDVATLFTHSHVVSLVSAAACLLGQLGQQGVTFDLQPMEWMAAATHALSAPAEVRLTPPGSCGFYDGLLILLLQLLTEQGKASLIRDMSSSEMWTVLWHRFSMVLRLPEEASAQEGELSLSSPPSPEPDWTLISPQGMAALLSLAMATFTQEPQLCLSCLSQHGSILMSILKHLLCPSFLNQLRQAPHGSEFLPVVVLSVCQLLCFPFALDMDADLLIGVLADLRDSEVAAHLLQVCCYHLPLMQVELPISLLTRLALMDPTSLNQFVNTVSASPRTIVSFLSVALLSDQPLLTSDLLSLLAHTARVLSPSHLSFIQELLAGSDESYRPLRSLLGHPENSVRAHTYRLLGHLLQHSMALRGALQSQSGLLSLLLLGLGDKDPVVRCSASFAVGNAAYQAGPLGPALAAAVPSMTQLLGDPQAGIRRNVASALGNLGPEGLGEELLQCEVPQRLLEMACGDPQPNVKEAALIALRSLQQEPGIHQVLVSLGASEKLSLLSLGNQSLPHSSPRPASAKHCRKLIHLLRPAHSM", "conditions": "at 10 µM"}, "[7]": {"target": "eIF-2-alpha kinase GCN2 (Homo sapiens) (UniProt Q9P2K8)", "sequence (Q9P2K8 whole entry)": "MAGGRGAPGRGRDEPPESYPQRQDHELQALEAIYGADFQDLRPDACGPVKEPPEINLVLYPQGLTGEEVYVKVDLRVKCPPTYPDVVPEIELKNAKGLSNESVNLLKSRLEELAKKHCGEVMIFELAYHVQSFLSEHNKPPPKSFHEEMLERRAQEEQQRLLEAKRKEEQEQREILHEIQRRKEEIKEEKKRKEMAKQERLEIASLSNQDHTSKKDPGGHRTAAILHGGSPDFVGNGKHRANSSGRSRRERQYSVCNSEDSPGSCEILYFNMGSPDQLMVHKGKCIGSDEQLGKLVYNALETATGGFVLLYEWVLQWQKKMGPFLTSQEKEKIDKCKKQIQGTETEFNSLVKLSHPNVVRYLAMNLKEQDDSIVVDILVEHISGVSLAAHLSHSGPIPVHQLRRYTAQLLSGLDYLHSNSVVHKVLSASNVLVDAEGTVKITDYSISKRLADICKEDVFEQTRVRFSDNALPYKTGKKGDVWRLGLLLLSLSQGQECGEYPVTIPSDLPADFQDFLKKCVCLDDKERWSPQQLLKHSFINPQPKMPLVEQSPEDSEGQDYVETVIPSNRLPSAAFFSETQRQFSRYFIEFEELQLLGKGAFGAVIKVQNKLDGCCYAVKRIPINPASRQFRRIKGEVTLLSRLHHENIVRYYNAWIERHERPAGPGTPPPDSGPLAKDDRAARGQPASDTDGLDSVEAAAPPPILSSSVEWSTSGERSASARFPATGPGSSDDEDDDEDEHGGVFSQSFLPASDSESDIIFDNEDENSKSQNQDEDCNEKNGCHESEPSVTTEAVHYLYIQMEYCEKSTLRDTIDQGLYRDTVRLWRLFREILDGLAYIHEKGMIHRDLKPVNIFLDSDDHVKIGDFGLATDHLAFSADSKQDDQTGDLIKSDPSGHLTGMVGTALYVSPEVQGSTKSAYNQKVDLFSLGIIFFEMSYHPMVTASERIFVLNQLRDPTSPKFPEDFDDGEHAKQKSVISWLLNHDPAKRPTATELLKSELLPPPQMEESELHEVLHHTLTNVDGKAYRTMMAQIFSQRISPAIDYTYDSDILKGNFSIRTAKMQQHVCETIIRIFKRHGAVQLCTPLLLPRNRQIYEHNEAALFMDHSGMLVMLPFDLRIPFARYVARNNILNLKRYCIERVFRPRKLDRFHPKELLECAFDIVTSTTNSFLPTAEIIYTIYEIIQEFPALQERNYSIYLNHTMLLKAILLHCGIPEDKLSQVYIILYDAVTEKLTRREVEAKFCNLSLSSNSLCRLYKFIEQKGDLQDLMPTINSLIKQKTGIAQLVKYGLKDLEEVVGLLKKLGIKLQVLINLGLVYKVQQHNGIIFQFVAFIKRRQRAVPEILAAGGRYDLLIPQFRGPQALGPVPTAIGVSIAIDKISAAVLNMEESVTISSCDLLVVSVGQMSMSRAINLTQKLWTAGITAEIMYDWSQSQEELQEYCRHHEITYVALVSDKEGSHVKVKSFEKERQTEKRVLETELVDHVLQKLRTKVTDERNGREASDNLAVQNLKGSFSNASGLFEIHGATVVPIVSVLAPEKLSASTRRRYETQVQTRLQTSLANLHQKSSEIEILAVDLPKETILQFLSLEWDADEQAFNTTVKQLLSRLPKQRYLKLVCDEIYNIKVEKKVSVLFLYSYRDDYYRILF", "assay": "Selectivity interaction (ActivX KiNativ screen (ex vivo kinase selectivity in human PBMCs)) EUB0001619a EIF2AK4", "format": "cell-based", "conditions": "PBMC, at 1 µM"}, "[8]": {"target": "Rho-associated protein kinase 2 (Homo sapiens, UniProt O75116)", "assay": "Selectivity interaction (Upstate Kinase Profiler service (Millipore)) EUB0000056c ROCK2", "conditions": "at 1 µM"}, "[9]": {"system": "Tyrosine-protein kinase ABL1 (Homo sapiens), P00519 [F317I]", "assay": "Selectivity interaction (KinomeScan (DiscoverX)) EUB0000655a ABL1", "conditions": "at 10 µM"}, "[10]": {"target": "Serine/threonine-protein kinase PLK2 (Homo sapiens, UniProt Q9NYY3)", "sequence (Q9NYY3 whole entry, looked up)": "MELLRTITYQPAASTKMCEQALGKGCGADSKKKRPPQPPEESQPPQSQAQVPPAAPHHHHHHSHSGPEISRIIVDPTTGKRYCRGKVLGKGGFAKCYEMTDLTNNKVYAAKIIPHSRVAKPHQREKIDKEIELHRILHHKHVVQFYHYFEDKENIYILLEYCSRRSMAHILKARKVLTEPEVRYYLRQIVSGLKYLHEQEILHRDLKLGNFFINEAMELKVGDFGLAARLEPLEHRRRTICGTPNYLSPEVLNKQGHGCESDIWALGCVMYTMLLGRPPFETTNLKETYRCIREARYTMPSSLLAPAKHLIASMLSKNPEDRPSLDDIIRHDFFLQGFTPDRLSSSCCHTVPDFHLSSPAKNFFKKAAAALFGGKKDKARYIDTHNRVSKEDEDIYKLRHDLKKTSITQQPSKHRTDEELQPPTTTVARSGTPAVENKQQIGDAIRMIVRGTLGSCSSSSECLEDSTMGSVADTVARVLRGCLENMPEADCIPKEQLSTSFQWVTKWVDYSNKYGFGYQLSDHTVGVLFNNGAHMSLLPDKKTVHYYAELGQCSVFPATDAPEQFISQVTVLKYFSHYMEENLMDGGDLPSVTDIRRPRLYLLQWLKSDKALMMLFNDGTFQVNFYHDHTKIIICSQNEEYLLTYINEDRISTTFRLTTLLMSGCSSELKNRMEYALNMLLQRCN", "assay": "Selectivity interaction (KinomeScan (DiscoverX)) EUB0000655a PLK2", "conditions": "at 10 µM"}, "[11]": {"target": "Ribosomal protein S6 kinase alpha-2 (Homo sapiens) (UniProt Q15349)", "sequence (Q15349 whole entry)": "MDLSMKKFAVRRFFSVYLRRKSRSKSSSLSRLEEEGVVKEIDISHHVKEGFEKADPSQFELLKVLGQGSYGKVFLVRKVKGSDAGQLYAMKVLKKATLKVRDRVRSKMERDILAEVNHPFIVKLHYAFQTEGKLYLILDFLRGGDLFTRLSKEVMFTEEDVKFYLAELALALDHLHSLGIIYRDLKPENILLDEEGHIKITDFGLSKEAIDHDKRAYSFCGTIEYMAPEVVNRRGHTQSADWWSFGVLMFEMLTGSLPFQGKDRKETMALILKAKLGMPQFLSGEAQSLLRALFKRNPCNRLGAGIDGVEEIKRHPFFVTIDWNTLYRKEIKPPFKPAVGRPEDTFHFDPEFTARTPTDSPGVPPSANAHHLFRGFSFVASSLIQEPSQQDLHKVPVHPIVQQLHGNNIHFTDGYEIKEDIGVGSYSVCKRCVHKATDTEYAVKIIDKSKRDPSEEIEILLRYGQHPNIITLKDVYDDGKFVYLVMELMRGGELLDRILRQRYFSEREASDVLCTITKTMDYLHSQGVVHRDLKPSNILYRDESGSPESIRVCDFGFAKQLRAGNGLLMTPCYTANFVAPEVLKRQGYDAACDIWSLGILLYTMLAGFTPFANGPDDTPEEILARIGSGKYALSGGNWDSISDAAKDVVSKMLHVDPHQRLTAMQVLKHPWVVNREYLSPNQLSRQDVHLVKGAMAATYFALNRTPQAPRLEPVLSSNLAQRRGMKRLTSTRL", "assay": "Selectivity interaction (KinomeScan (DiscoverX)) EUB0000655a RPS6KA2", "conditions": "at 10 µM"}, "[12]": {"target": "Serine/threonine-protein kinase 32A (Homo sapiens) (UniProt Q8WU08)", "sequence (Q8WU08 whole entry)": "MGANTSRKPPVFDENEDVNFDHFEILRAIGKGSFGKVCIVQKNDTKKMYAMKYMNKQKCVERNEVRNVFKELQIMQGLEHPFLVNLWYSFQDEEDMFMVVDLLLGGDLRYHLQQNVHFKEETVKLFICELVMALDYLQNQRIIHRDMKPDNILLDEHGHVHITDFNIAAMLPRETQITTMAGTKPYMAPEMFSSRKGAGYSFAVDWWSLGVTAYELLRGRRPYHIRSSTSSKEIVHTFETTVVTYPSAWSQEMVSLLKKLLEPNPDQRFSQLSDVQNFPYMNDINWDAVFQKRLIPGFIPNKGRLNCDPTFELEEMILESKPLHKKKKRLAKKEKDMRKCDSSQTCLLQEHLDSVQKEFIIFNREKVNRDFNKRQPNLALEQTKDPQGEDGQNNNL", "assay": "Selectivity interaction (KinomeScan (DiscoverX)) EUB0000607a STK32A", "conditions": "at 10 µM"}}}
{"molecule": "O=C(NOC[C@H](O)CO)c1ccc(F)c(F)c1Nc1ccc(I)cc1F", "values": [{"measurement": "% of control", "setting": "[1]", "result": 86, "unit": "%"}, {"measurement": "% of control", "setting": "[2]", "result": 100, "unit": "%"}]}
{"molecule": "CC[C@@H]1[C@H](F)C(=O)N[C@@H]1COc1nccc2cc(C(N)=O)c(OC)cc12", "note": "[ZIMLOVISERTIB]", "values": [{"measurement": "% of inhibition", "setting": "[3]; at 0.01 µM", "result": 13.5, "unit": "%"}, {"measurement": "% of inhibition", "setting": "[3]; at 0.04 µM", "result": 5.2, "unit": "%"}, {"measurement": "% of inhibition", "setting": "[3]; at 0.2 µM", "result": 15.3, "unit": "%"}, {"measurement": "% of inhibition", "setting": "[3]; at 1 µM", "result": 30.7, "unit": "%"}, {"measurement": "% of inhibition", "setting": "[3]; at 5 µM", "result": 60.6, "unit": "%"}, {"measurement": "% of inhibition", "setting": "[4]; at 0.01 µM", "result": -4.8, "unit": "%"}, {"measurement": "% of inhibition", "setting": "[4]; at 0.04 µM", "result": 7.5, "unit": "%"}, {"measurement": "% of inhibition", "setting": "[4]; at 0.2 µM", "result": 11.8, "unit": "%"}, {"measurement": "% of inhibition", "setting": "[4]; at 1 µM", "result": 9.4, "unit": "%"}, {"measurement": "% of inhibition", "setting": "[4]; at 5 µM", "result": 7.6, "unit": "%"}, {"measurement": "% of inhibition", "setting": "[5]", "result": 8.97, "unit": "%"}]}
{"molecule": "Cc1cc([C@@H](C)Nc2ccccc2C(=O)O)c2nc(N3CCOCC3)cc(=O)n2c1", "note": "[AZD-6482]", "values": [{"measurement": "% of control", "setting": "[6]", "result": 100, "unit": "%"}]}
{"molecule": "N#Cc1cccc(-c2c[nH]c3ncnc(N4CCOCC4)c23)c1", "values": [{"measurement": "% of inhibition", "setting": "[7]", "result": 22, "unit": "%"}]}
{"molecule": "Cc1ccc(-c2ccc3c(ccc4sc5c(c43)NC[C@@H](C)NC5=O)n2)cn1", "values": [{"measurement": "% of inhibition", "setting": "[8]", "result": -9, "unit": "%"}]}
{"molecule": "CN(C)CCOc1ccc(-c2nc(-c3ccncc3)c(-c3ccc4c(c3)CC/C4=N\\O)[nH]2)cc1", "values": [{"measurement": "% of control", "setting": "[9]", "result": 81, "unit": "%"}, {"measurement": "% of control", "setting": "[10]", "result": 92, "unit": "%"}, {"measurement": "% of control", "setting": "[11]", "result": 61, "unit": "%"}]}
{"molecule": "CNC(=O)Nc1ccc(-c2nc(N3CC4CCC(C3)O4)c3cnn(C4CCC5(CC4)OCCO5)c3n2)cc1", "values": [{"measurement": "% of control", "setting": "[12]", "result": 99, "unit": "%"}]}
